One sequence from patent publication US20250262139A1, “POLYPEPTIDES AND METHODS FOR IMPROVING SKIN CONDITIONS” (INTERK PEPTIDE THERAPEUTICS LIMITED, priority 2020, published 2025) can be followed below.

Where no end group is shown, it is not given here.

The test system of assay [1] is ICR mice, punch skin wound. Description: murine wound model, wound closure. The format is in vivo. The note with it: topical 10 μg per mouse daily for 10 consecutive days; Day 5 to Day 11; vs negative control (PBS). An excerpt: FIGS. 1 and 2 illustrate the effect of polypeptides IK34720 (SEQ ID NO: 3—RSKAKNPLYRRRRRRRRR) (FIG. 1) and the dextro-reverso sequence IK236770 (SEQ ID NO: 4—rrrrrrrrrylpnkaksr) (FIG. 2), on wound healing over 10 days in a murine wound model in accordance with the following protocol.
Three groups of 8 male ICR mice with a mean weight of 22 g (+2 g) were used in the present study. The animals were housed in individual cages during the study. Under isoflurane gas anaesthesia, the shoulder and back region of each animal was shaved and a sharp punch (ID 12 mm) was used to induce a wound by removing the skin, including panniculus carnosus and adherent tissues on Day 1.
Following induction of the wound the polypeptides IK34720 and IK236770 were topically administered to the site of the wound at a dosage of 10 μg per animal. […] An additional group which comprised the administration of Phosphate buffered Saline (PBS) at pH 7.4 was used as a negative control.
The wound healing was analysed on Days 5, 7, 9 and 11 by tracing the periphery of the wound onto clear plastic sheets with the wound area calculated by an Image analyzer ProPlus (Media Cybernetics, Version 4.5.0.29. The percentage closure of the wound (%) was calculated. Percentage closure of the wound was determined on 5, 7, 9 and 11. ANOVA and Dunnett's test were applied to test significant significance between the treated groups (peptide and positive control groups) and the negative control group at each time point of measurement. Differences were considered statistically significant at P<0.05, and are indicated by *.

Assay [2] relates to human skin explants. Description: sunburn (apoptotic) cells in UV-irradiated human skin explants. The format is cell-based. The procedure:
Skin explants were cultured irradiated and treated as described above for CPD, and subsequent to treatment were stained and quantified as described for Example 6.

Assay [3] concerns Aquaporin 3. Description: Aquaporin 3 expression in keratinocytes exposed to HEV (blue) light. The format is cell-based, human. The note with it: NHEK exposed to HEV (blue) light; for increase in number of Aquaporin 3 positive cells: 470 nm, 3 days. Here is the method:
The ability of the polypeptide RSKAKNPLYRRRRRRRRR, to reverse HEV light (‘blue light”) induced damage to human keratinocytes was examined. In brief, Human Epidermal Keratinocytes (NHEK) which are representative of the epidermis were exposed to HEV light in the presence of the polypeptide RSKAKNPLYRRRRRRRRR, or untreated in the presence of the polypeptide RSKAKNPLYRRRRRRRRR.
The expression of Aquaporin 3 in cells (e.g. aquaporin 3 positive cells_was measured. Aquaporin 3 is found in the basolateral cell membrane and provides a pathway for water to exit cells. It is expressed in various tissues including the skin.
The experiment was carried out in quintuplicate in the following conditions (n=5): • Untreated NHEK • NHEK+IK14800 2,5 μM • NHEK+IK14800 5 μM • NHEK+IK14800 10 μM • NHEK+Blue light • NHEK+Blue light+IK14800 2.5 μM • NHEK+Blue light+IK14800 5 μM • NHEK+Blue light+IK14800 10 μM
Chronic blue light irradiation: one exposure per day for 3 days (220 joules—wavelength 470 nm). 4 days of treatment with the peptide (24 h before exposure to blue light and during the 3 days. The peptide was resuspended in milliQ water then diluted in the cell culture medium.
After treatment, the cells were washed and fixed with Formalin.
Finally, the nuclei were labelled with DAPI. The labelled proteins were observed and quantified by automated fluorescence microscopy Cellinsight CX7 High-Content Screening Platform (Thermofischer Data analysis
A statistical analysis was performed using Mann-Whitney by Prism software. The significance is correlated with the p-value: ns=no significant, […], **p-value<0.01, ***p-value<0.001.).

The test system of assay [4] is Skh: hr1 hairless mice. Description: 8-OHdG (8oxodG) immunohistochemistry in UV-irradiated mouse skin. The format is in vivo. The note with it: topical immediately after 3 MED UVR; IK34720 20, 100 or 200 μg, Calcitriol 11.4 pmol/cm2; biopsy 3 h post-UVR; vs vehicle. The procedure: 8-hydroxy-2′-deoxyguanosine or 8-oxo-7,8-dihydro-2′-deoxyguanosine (8-OHdG/8-oxodG) is one of the predominant forms of free radical-induced in oxidative lesions with the concentrations of 8-OHdG within a cell being a measurement of oxidative stress. The role of the polypeptide IK34720 (SEQ ID NO: 3) in UV-induced oxidative stress was assessed using the following protocol.
Female Skh: hr1 hairless mice were exposed to solar simulated UV-irradiation (UVR) by exposure to one fluorescent UVB tube (Philips TL40W 12R/S, Eindhoven, The Netherlands) in combination with 6 UVA tubes (Hitachi 40W F40T 10/BL, Tokyo, Japan). The UVA and UVB irradiation was filtered through a 0.125 mm cellulose acetate sheet (Grafix Plastics, Cleveland, OH) as previously described (Dixon K M et al., Biochem Mol Biol, 2007, 103 (3-5): 451-6). […]
Biopsies were taken from UV-irradiated dorsal skin 3 h post-UVR and fixed in Histochoice fixative (Amresco, Solon OH) for 6 h. […] Sections were subjected to routine hematoxylin and eosin staining for visualization of sunburn cells at 40× magnification, and the number of sunburn cells per linear millimetre of skin section recorded.
Levels of 8-oxo-2′-deoxyguanosine (8oxodG) indicative of oxidative stress were detected by immunohistochemistry and image analysis (Dixon K M et al., Cancer Prev Res 2011, 4 (9): 1485-94) as set out below. […]

With “RSKAKNPLYRRRRRRRRR (not fully specified (some residues)) [IK34720]”, the wound closure percentage result in assay [1] is “statistically significant increase”. The “number of apoptotic cells” value in assay [2] (50 μM and 250 μM, 3 hrs and 24 hrs post UV-irradiation) is given as “reduces the number of apoptotic cells”; in assay [2] (80 μM, 400 μM and 800 μM, following UV-irradiation, data not shown), “statistically significantly reduces the number of apoptotic cells”; in assay [2] (500 μM, 3 hrs and 24 hrs post UV-irradiation), “statistically significantly reduces the number of apoptotic cells”. In addition, the “increase in number of Aquaporin 3 positive cells” value in assay [3] (5 μM) is recorded as “+20%”; in assay [3] (10 μM) it was “+27%”. Also, the “basal expression of Aquaporin 3” value in assay [3] (2.5, 5, 10 μM) is recorded as “restores the basal expression of Aquaporin 3 in a dose dependent manner”. In addition, in assay [4], the “8-OHdG formation in the skin” value was “inhibits 8-OHdG formation”.
